A word on the pIC50: it is −log10 of the IC50, conventionally taken in molar units. High values mean a low IC50, low ones a high IC50.

pIC50: −log10 of the molar value.

These results are taken from US11701347B2, “Use of 5-fluoro-4-(4-fluoro-2-methoxyphenyl)-N-{4-[(S-methylsulfonimidoyl)methyl]pyridin-2-yl}pyridin-2-amine for treating diffuse large B-cell lymphoma” (Bayer Aktiengesellschaft, priority 2018, dated 2023).

Series [1] relates to subcutaneous DLBCL OCI-LY-3 xenografts. Description: In vivo efficacy in DLBCL OCI-LY-3 xenograft model. Particulars: 10 mg/kg q7d iv, 14 days, end of experiment. More on the design: species or system female SCID mice. Here is the method: (§1) The aim of the present experiments was to assess the in vivo efficacy and tolerability of Compound A′ in monotherapy in the DLBCL OCI-LY-3 tumour model subcutaneously implanted in SCID mice. In vivo efficacy was determined in female SCID mice bearing subcutaneous DLBCL OCI-LY-3 xenografts. Compound A′ was assessed at one dose level in monotherapy. Anti-tumour activity and tolerability of the treated group was assessed using the vehicle control group as a reference.
(§2) At randomisation, the area of growing tumours was initially determined Animals bearing one tumour of an area of 25-35 mm2 were distributed in experimental groups according to the study protocol. The day of randomisation is designated as day 0 of an experiment Animals either received Compound A′ (formulated in 30% PEG400/10% Ethanol/60%water), at a dose of 10 mg/kg q7d intravenously or vehicle control (qd po) for a period of 14 days.
At the end of the experiment Treatment to Control ratios (T/C) were calculated based on the mean tumor area and the mean tumor weight in the Compound A′ treatment group and in the vehicle control group.

Series [2] in a line: Tolerability in SU-DHL-10 xenograft study. The class given is in vivo, female SCID mice. As to conditions: 15 mg/kg q7d iv, 16 days. As to the method: (§3) The aim of the present experiments was to assess the in vivo efficacy and tolerability of Compound A′ in monotherapy in the DLBCL SU-DHL-10 tumour model subcutaneously implanted in SCID mice. In vivo efficacy was determined in female SCID mice bearing subcutaneous DLBCL SU-DHL-10 xenografts. Compound A′ was assessed at one dose level in monotherapy. Anti-tumour activity and tolerability of the treated group was assessed using the vehicle control group as a reference. […] At randomisation, the area of growing tumours was initially determined Animals bearing one tumour of an area of 25-35 mm2 were distributed in experimental groups according to the study protocol. The day of randomisation is designated as day 0 of an experiment Animals either received Compound A′ (formulated in 30% PEG400/10% Ethanol/60%water), at a dose of 15 mg/kg q7d intravenously or vehicle control (q7d iv) for a period of 16 days.
(§4) The maximum body weight loss was −9% in Compound A′ group compared to −4% in the vehicle group indicating moderate tolerability of Compound A′ at a dose of 15 mg/kg q7d iv. At the end of the experiment the Treatment to Control ratios (T/C) was calculated based on the mean tumor area in the Compound A′ treatment group and in the vehicle control group.

Series [3] in a line: Tolerability in OCI-LY-3 xenograft study. Format: in vivo. Particulars: 10 mg/kg q7d iv, 14 days. As to the method:
as §1, §2

In series [4] the test system is subcutaneous DLBCL SU-DHL-10 xenografts. Description: In vivo efficacy in DLBCL SU-DHL-10 xenograft model. Details: species or system female SCID mice. Particulars: 15 mg/kg q7d iv, 16 days, end of experiment. Here is the method:
as §3, §4

The subject of the next series is OCI-LY-3. Description: Cell proliferation assay (CellTiter Glo, 72 h). The class given is cell-based. As to conditions: Homo sapiens, OCI-Ly3, OCI-LY-3, DLBCL ABC subtype. Here is the method:
(§5) The proliferation of all (DLCBL) cell lines in the presence of different concentrations of Compound A′ or FR compound for 72 h was assessed using CellTiter Glo kits (Promega Corporation, Madison, Wis.). All expressed values were averages of triplicate experiments, and IC50 was calculated using GraphPad Prism 5 (GraphPad Software, San Diego, Calif.) according to the manufacturer's instructions or the MTS software.

A further series has as its system DB. Description: Cell proliferation assay (CellTiter Glo, 72 h). As to conditions: Homo sapiens, DLBCL GCB subtype. Format: cell-based. As to the method: as §5
A further series has as its system SU-DHL-5. Description: Cell proliferation assay (CellTiter Glo, 72 h). The class given is cell-based. Particulars: Homo sapiens, SU-DHL-5, DLBCL GCB subtype. Here is the method: as §5
For orientation: ATP-based viability assays read luminescence as a measure of living cells.

Another series relates to HT. Kind of series: Cell proliferation assay (CellTiter Glo, 72 h). Format: cell-based. As to conditions: Homo sapiens, DLBCL GCB subtype. Here is the method: as §5
For another series, the system named is HBL1. Kind of series: Cell proliferation assay (CellTiter Glo, 72 h). Format: cell-based. Particulars: HBL1, DLBCL ABC subtype. As to the method:
as §5

The next series deals with OCI-LY-19. Description: Cell proliferation assay (CellTiter Glo, 72 h). The class given is cell-based. Particulars: Homo sapiens, OCI-LY19, OCI-LY-19, DLBCL GCB subtype. As to the method:
as §5

The next series concerns SU-DHL-6. Description: Cell proliferation assay (CellTiter Glo, 72 h). Format: cell-based. Particulars: Homo sapiens, SU-DHL-6, DLBCL GCB subtype. As to the method: as §5
The test system of another series is SU-DHL-10. Kind of series: Cell proliferation assay (CellTiter Glo, 72 h). The class given is cell-based. As to conditions: Homo sapiens, SU-DHL10, SU-DHL-10, DLBCL GCB subtype. As to the method: as §5
The subject of another series is SU-DHL-4. Description: Cell proliferation assay (CellTiter Glo, 72 h). The class given is cell-based. Particulars: Homo sapiens, SU-DHL-4, DLBCL GCB subtype. Here is the method: as §5
A further series deals with SU-DHL-8. Kind of series: Cell proliferation assay (CellTiter Glo, 72 h). The class given is cell-based. Particulars: Homo sapiens, SU-DHL-8, DLBCL GCB subtype. As to the method: as §5
Another series deals with TMD8. Kind of series: Cell proliferation assay (CellTiter Glo, 72 h). As to conditions: Homo sapiens, TMD8, DLBCL ABC subtype. Format: cell-based. As to the method: as §5

For `COc1cc(F)ccc1-c1cc(Nc2cc(CS(C)(=N)=O)ccn2)ncc1F` (single isomer, unassigned; (+)) [Compound A′, (+)-5-Fluoro-4-(4-fluoro-2-methoxyphenyl)-N-{4-[(S-methylsulfonimidoyl)methyl]pyridin-2-yl}pyridin-2-amine], the “T/C by area (Treatment to Control ratio, mean tumor area)” value amounted to 0.29 in series [1] and 0.02 in [4]. Besides, the “T/C by weight (Treatment to Control ratio, mean tumor weight)” value in [1] was found to be 0.24. Also, the “maximum body weight loss” value in series [2] was −9%; in series [3], −6%. In series [3], the Fatal toxicities entry is given as “did not occur”. Moreover, the pIC50 was 7.08 in the series on OCI-LY-3; 7.06 in the series on DB; 6.98 in the series with SU-DHL-5; 7.09 in the series on HT; 6.71 in the series with HBL1; 7.41 with OCI-LY-19. Also, the pIC50 in the series with SU-DHL-6 was 7.43; with SU-DHL-10, 6.89; with SU-DHL-4, 7.05; in the series on SU-DHL-8, 7.03; in the series with TMD8 it was 7.00.
Take `COc1cc(F)ccc1-c1ncnc(Nc2cccc(CS(C)(=N)=O)c2)n1` (centres unmarked) [FR compound, reference compound]: the pIC50 in the series on OCI-LY-3 was 6.47; in the series on DB, 6.24; in the series on HT, 6.15; in the series on HBL1, 6.27; with OCI-LY-19, 6.32; with SU-DHL-6 it was 6.44. In addition, the pIC50 was 6.22 with SU-DHL-10, 6.77 with SU-DHL-4 and 6.21 in the series on SU-DHL-8.
